The results in this text go back to patent publication US11261201B2 (priority 2018, dated 2022).

≈ marks a conversion by molar mass, not a printed value. Structures can show the parent of a compound that is named as a salt. Where two headings read alike, the source gives them in different places.

Assay [1] deals with E. coli. Description: Gram negative MIC protocol (OD600, LB, 24 h). The following applies: Escherichia coli.
Method: (§1) Overnight bacterial cultures were grown in LB with no added antibiotics at 37° C. with shaking. A 1:1000 dilution of these cultures into LB was exposed to concentration gradients of compounds in 96-well plates (100 μL per well assay volume). Resulting plates were incubated at 37° C. for 24 h without shaking, and OD600 was measured at the end of the incubation. MICs were determined as the lowest concentrations at which OD600 remained at baseline.
Assay [2] concerns H37RvMA. Description: Tuberculosis Alamar Blue/Resazurin assay (MIC). It is filed as cell-based. The following applies: Mycobacterium tuberculosis, H37RV, read-out: WT H37Rv MTB Activity. On the technique in general: Alamar Blue is a resazurin reagent that responds to reducing activity.
Assay [3] relates to A. baumannii. The assay is described as follows: Gram negative MIC protocol (OD600, LB, 24 h). The following applies: Acinetobacter baumannii.
Method: as §1
Setting [4] is: read-out: MIC E. coli delta-TolC LB Media, E. coli delta-TolC, LB media, OD600.
Where [5] appears, read: read-out: MIC WT E. coli LB Media, WT E. coli, LB media, OD600.
[6] abbreviates: read-out: MIC A. baumannii LB Media, A. baumannii, LB media, 24 h, OD600.
The mark [7] stands for this setting: read-out: MIC E. coli delta-TolC LB Media, E. coli delta-TolC strain, LB media, 24 h, OD600.
The mark [8] stands for this setting: read-out: MIC WT E. coli LB Media, wild-type E. coli, LB media, 24 h, OD600.
Where [9] appears, read: read-out: MIC A. baumannii LB Media.

Regarding `CC(NCc1ccccc1)C1CC2CCC1CC2` (centres unmarked) [B62], the MIC in assay [1] (setting [4]), in assay [1] (setting [5]), in assay [2] (WT H37Rv MTB) and in assay [3] (setting [6]) was greater than 150 µM each time.

With `C1=C(CCNCc2ccccc2)CCCCC1` [B71], the MIC in assay [1] (setting [4]) was 90 µM (≈ 20.6 µg/mL); in assay [1] (setting [5]), 150 µM (≈ 34.4 µg/mL); in assay [2] (WT H37Rv MTB), 91 µM (≈ 20.9 µg/mL); in assay [3] (setting [6]) it was greater than 150 µM.

Consider `CC(CC1CCCCC1)NCc1ccccc1OCC1CCOCC1` (centres unmarked) [B281], for which the MIC in assay [1] (setting [7]) is 4 µM (≈ 1.38 µg/mL); in assay [1] (setting [8]) it was greater than 150 µM; in assay [2] (WT H37Rv MTB), 91 µM (≈ 31.4 µg/mL); in assay [3] (setting [6]), 91 µM (≈ 31.4 µg/mL).

With `C1=CC(CCNCc2ccccc2)CCC1` (centres unmarked) [B160], the MIC in assay [1] (setting [4]), in assay [1] (setting [5]), in assay [2] and in assay [3] (setting [9]) was greater than 150 µM in each case.

Turning to `Oc1cccc(CNCCC2CCCCC2)c1` [B356], the MIC in assay [1] (setting [7]), in assay [1] (setting [8]), in assay [2] (WT H37Rv MTB) and in assay [3] (setting [6]) was greater than 150 µM throughout.

Turning to `CC(CC1CCCCC1)NCc1ccccc1OC1CC2CCC1(C)C2(C)C` (centres unmarked) [B326], the MIC is 12 µM (≈ 4.6 µg/mL) in assay [1] (setting [7]), greater than 150 µM in assay [1] (setting [8]), 55 µM (≈ 21.1 µg/mL) in assay [2] (WT H37Rv MTB) and greater than 150 µM in assay [3] (setting [6]).

As to `C[Si](C)(C)c1ccccc1CNCCC1CCCCC1` [B341, 2-cyclohexyl-N-(2-(trimethylsilyl)-benzyl)ethanamine hydrochloride], the MIC is 7 µM in assay [1] (setting [7]), greater than 150 µM in assay [1] (setting [8]), 150 µM in assay [2] and greater than 150 µM in assay [3] (setting [9]).

With `c1ccc(CNCCC2CCCNC2)cc1` (centres unmarked) [B224], the MIC in assay [1] (setting [7]) is greater than 150 µM; in assay [1] (setting [8]) it was greater than 300 µM; in assay [2] (WT H37Rv MTB), greater than 150 µM; in assay [3] (setting [6]), greater than 300 µM.

Consider `Cc1ccc(CNCCC2=CCCCC2)cc1` [B10, 2-(cyclohex-1-en-1-yl)-N-(4-methylbenzyl)ethan-1-amine], for which the MIC in assay [1] (setting [4]), in assay [1] (setting [5]), in assay [2] (WT H37Rv MTB) and in assay [3] (setting [6]) was greater than 150 µM throughout.

For `CC(CC1CCCCC1)NCc1ccccc1OCC1(CO)COC1` (centres unmarked) [B269], the MIC is 7 µM (≈ 2.43 µg/mL) in assay [1] (setting [7]), greater than 150 µM in assay [1] (setting [8]), greater than 150 µM in assay [2] (WT H37Rv MTB) and 55 µM (≈ 19.1 µg/mL) in assay [3] (setting [6]).

On to `c1ccc(CNCCC2CC3CCC2C3)cc1` (centres unmarked) [B146], for which the MIC is 90 µM (≈ 20.6 µg/mL) in assay [1] (setting [4]), 150 µM (≈ 34.4 µg/mL) in assay [1] (setting [5]), greater than 150 µM in assay [2] (WT H37Rv MTB) and 150 µM (≈ 34.4 µg/mL) in assay [3] (setting [6]).

`CCNC(=O)COc1ccccc1CNC(C)CC1CCCCC1` (centres unmarked) [B239]: the MIC in assay [1] (setting [7]) was 20 µM (≈ 6.65 µg/mL); in assay [1] (setting [8]) it was greater than 150 µM; in assay [2] (WT H37Rv MTB) it was greater than 150 µM; in assay [3] (setting [6]) it was greater than 150 µM.

Take `CC1CCC(CCNCc2ccccc2)CC1` (centres unmarked) [B221]: the MIC came out at 150 µM (≈ 34.7 µg/mL) in assay [1] (setting [7]), 300 µM (≈ 69.4 µg/mL) in assay [1] (setting [8]), 150 µM (≈ 34.7 µg/mL) in assay [2] (WT H37Rv MTB) and 220 µM (≈ 50.9 µg/mL) in assay [3] (setting [6]).

As for `CC(CC1CCCCC1)NCc1ccccc1OCC(=O)NC(=O)NC(C)(C)C` (centres unmarked) [B325], the MIC in assay [1] (setting [7]) is 4 µM (≈ 1.61 µg/mL); in assay [1] (setting [8]) it was greater than 150 µM; in assay [2] (WT H37Rv MTB), 91 µM (≈ 36.7 µg/mL); in assay [3] (setting [6]), 150 µM (≈ 60.5 µg/mL).

For the molecule `CC(C)(C)OC(=O)N(Cc1ccccc1)C(C=O)CC1CCCCC1` (centres unmarked) [B210, tert-butyl benzyl(1-cyclohexyl-3-oxopropan-2-yl)carbamate], the MIC was greater than 300 µM in assay [1] (setting [7]), greater than 300 µM in assay [1] (setting [8]), greater than 150 µM in assay [2] (WT H37Rv MTB) and greater than 300 µM in assay [3] (setting [6]).

Turning to `COc1cccc(OCCOc2ccccc2CNC(C)CC2CCCCC2)c1` (centres unmarked) [B266], the MIC in assay [1] (setting [7]) worked out at 2 µM (≈ 0.795 µg/mL); in assay [1] (setting [8]) it was 150 µM (≈ 59.6 µg/mL); in assay [2] (WT H37Rv MTB) it was 55 µM (≈ 21.9 µg/mL); in assay [3] (setting [6]) it was 33 µM (≈ 13.1 µg/mL).

For `CC(CC1CCCCC1)NCc1ccccc1OCC(=O)N1CCOCC1` (centres unmarked) [B309], the MIC was 33 µM (≈ 12.4 µg/mL) in assay [1] (setting [7]), greater than 150 µM in assay [1] (setting [8]), greater than 150 µM in assay [2] (WT H37Rv MTB) and greater than 150 µM in assay [3] (setting [6]).

Take `O=C(O)C1CCCCC1CCNCc1ccccc1` (centres unmarked) [B184]: the MIC in assay [1] (setting [4]) is greater than 300 µM; in assay [1] (setting [5]) it was greater than 300 µM; in assay [2] (WT H37Rv MTB), greater than 150 µM; in assay [3] (setting [6]) it was greater than 300 µM.

In the case of `C1=CC2CC1CC2CCNCc1ccccc1` (centres unmarked) [B70], the MIC in assay [1] (setting [4]), in assay [1] (setting [5]), in assay [2] (WT H37Rv MTB) and in assay [3] (setting [6]) was greater than 150 µM in each case.

As for `CC(/C=C/C1CCCCC1)NCc1ccccc1` (centres unmarked) [B219, (E)-N-benzyl-4-cyclohexylbut-3-en-2-amine], the MIC was greater than 300 µM in assay [1] (setting [7]), greater than 300 µM in assay [1] (setting [8]), greater than 150 µM in assay [2] (WT H37Rv MTB) and greater than 300 µM in assay [3] (setting [6]).

Regarding `CC(CC1CCCCC1)NCc1ccccc1OC1CCC1` (centres unmarked) [B385, N-(2-cyclobutoxybenzyl)-1-cyclohexylpropan-2-amine], the MIC is 2 µM (≈ 0.603 µg/mL) in assay [1] (setting [7]), 91 µM (≈ 27.4 µg/mL) in assay [1] (setting [8]), 90.9 µM (≈ 27.4 µg/mL) in assay [2] (WT H37Rv MTB) and 150 µM (≈ 45.2 µg/mL) in assay [3] (setting [6]).

Regarding `CC1CCC(CC(C)NCc2ccccc2OCc2ccccc2F)CC1` (centres unmarked) [B465, N-(2-((2-fluorobenzyl)oxy)benzyl)-1-(4-methylcyclohexyl)propan-2-amine], the MIC in assay [1] (setting [4]) was 7 µM (≈ 2.59 µg/mL); in assay [1] (setting [5]) it was greater than 150 µM; in assay [2] (WT H37Rv MTB), 20 µM (≈ 7.39 µg/mL); in assay [3] (setting [6]), 90 µM (≈ 33.3 µg/mL).

For `CC(CC1CCCCC1)NCc1ccccc1OCC(=O)N1CCOC(C)C1` (centres unmarked) [B316], the MIC in assay [1] (setting [7]) was 7 µM (≈ 2.72 µg/mL); in assay [1] (setting [8]), greater than 150 µM; in assay [2] (WT H37Rv MTB) it was greater than 150 µM; in assay [3] (setting [6]), greater than 150 µM.

`c1ccc(CNCC2(c3ccc4c(c3)OCO4)CC2)cc1` [B18]: the MIC in assay [1] (setting [4]), in assay [1] (setting [5]), in assay [2] and in assay [3] (setting [6]) was greater than 150 µM throughout.

Regarding `C1=C(CNCc2ccccc2)CCCC1` [B63], the MIC in assay [1] (setting [4]), in assay [1] (setting [5]), in assay [2] (WT H37Rv MTB) and in assay [3] (setting [6]) was greater than 150 µM each time.

Regarding `CC1CCC(NCc2ccccc2)CC1` (centres unmarked) [B142], the MIC in assay [1] (setting [4]), in assay [1] (setting [5]), in assay [2] (WT H37Rv MTB) and in assay [3] (setting [6]) was greater than 150 µM in each case.

For `CC(CC1CCCCC1)NCc1ccccc1OCc1ncccn1` (centres unmarked) [B310], the MIC in assay [1] (setting [7]) is 55 µM (≈ 18.7 µg/mL); in assay [1] (setting [8]), greater than 150 µM; in assay [2] (WT H37Rv MTB), greater than 150 µM; in assay [3] (setting [6]) it was greater than 150 µM.

For `OCC(CC1CCCCC1)NCc1ccccc1` (centres unmarked) [B168, 2-(benzylamino)-3-cyclohexylpropan-1-ol], the MIC in assay [1] (setting [4]) was 182 µM (≈ 45 µg/mL); in assay [1] (setting [5]), 170 µM (≈ 42.1 µg/mL); in assay [2], greater than 150 µM; in assay [3] (setting [9]), 410 µM (≈ 101 µg/mL).

For the molecule `CC(CC1CCCCC1)NCc1ccccc1OCc1nccs1` (centres unmarked) [B240], the MIC in assay [1] (setting [7]) was 7 µM (≈ 2.41 µg/mL); in assay [1] (setting [8]), greater than 150 µM; in assay [2] (WT H37Rv MTB), 150 µM (≈ 51.7 µg/mL); in assay [3] (setting [6]), greater than 150 µM.

`COc1ccc2ccccc2c1CCNCc1ccccc1` [B200]: the MIC in assay [1] (setting [7]) is 170 µM (≈ 49.5 µg/mL); in assay [1] (setting [8]), greater than 300 µM; in assay [2] (WT H37Rv MTB), 91 µM (≈ 26.5 µg/mL); in assay [3] (setting [6]), 300 µM (≈ 87.4 µg/mL).

For `CCc1noc(COc2ccccc2CNC(C)CC2CCCCC2)n1` (centres unmarked) [B324], the MIC in assay [1] (setting [7]) is 7 µM (≈ 2.5 µg/mL); in assay [1] (setting [8]), greater than 150 µM; in assay [2] (WT H37Rv MTB), greater than 150 µM; in assay [3] (setting [6]), greater than 150 µM.

Consider `CCC(CC1CCCCC1)NCc1ccccc1F` (centres unmarked) [B166, 1-cyclohexyl-N-(2-fluorobenzyl)butan-2-amine hydrochloride], for which the MIC was 250 µM in assay [1] (setting [4]), greater than 300 µM in assay [1] (setting [5]), greater than 150 µM in assay [2] (WT H37Rv MTB) and 300 µM in assay [3] (setting [6]).
